From patent publication US20230399312A1, “SUBSTITUTED PYRIMIDINES AND METHODS OF USE” (THERAVANCE BIOPHARMA R&D IP, LLC, priority 2020, published 2023)

Key:
[1] = biological target: T1, recombinant human ALK5 (TGF-βR1) protein (Homo sapiens, UniProt P36897); test: Biochemical ALK5 (TGF-βR1) assay to measure pKi (LANCE Ultra ULight kinase assay); conditions: apparent pKi, converted from pIC50 by Cheng-Prusoff
T1 construct: purchased Life Technologies PR9075A
T1 sequence (P36897 34-503): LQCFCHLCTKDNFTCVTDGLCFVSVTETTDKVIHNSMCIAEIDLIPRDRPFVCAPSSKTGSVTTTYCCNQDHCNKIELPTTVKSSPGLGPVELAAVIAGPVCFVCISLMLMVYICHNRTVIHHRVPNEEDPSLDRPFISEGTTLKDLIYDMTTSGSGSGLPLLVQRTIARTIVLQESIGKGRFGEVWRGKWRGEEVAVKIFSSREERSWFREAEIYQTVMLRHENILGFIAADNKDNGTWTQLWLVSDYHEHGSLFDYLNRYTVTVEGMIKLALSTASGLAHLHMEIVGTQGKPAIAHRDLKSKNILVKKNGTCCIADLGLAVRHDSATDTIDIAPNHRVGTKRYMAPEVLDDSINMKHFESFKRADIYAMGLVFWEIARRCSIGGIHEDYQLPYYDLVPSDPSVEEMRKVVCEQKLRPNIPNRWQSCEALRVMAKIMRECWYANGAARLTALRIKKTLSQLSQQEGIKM
How it was run: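 Cmpd + enzyme, 60 min RT; ATP from 125 μM (5×) stock, 60 min 37 °C; stop 12 mM EDTA/Eu anti-pThr1342 Topo2α Ab (pH 7.0 buffer); TR-FRET 665 nm. DMSO = max, SD-208 = min signal. 4-PL pIC50 → pKi (Cheng-Prusoff).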

[2] = tested on: TGF-β-stimulated SMAD3 phosphorylation in BEAS-2B cells; test: Cellular ALK5 potency assay, inhibition of TGF-β stimulated pSMAD3 formation in BEAS-2B cells; format: cell-based; conditions: Homo sapiens, pSMAD3, TGF-β 10 ng/mL, read-out: BEAS2B pIC50 (converted)
How it was run: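 Human lung epithelial BEAS-2B cells were pre-treated with compound for 1 h at 37 °C, then stimulated with TGF-β (final 10 ng/mL) for 30 min before lysis. pSMAD3 was quantified by AlphaLISA and pIC50 derived from dose-dependent signal change versus TGF-β-stimulated untreated cells.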

Question: Which results are given for `Cc1cccc(-c2nccc(Nc3ccnc(Nc4ccc(CN5CCCC(C(=O)OCC6CNC6)C5)cc4)n3)n2)n1` (stereo not shown) [Compound 318, azetidin-3-ylmethyl 1-[[4-[[4-[[2-(6-methyl-2-pyridyl)pyrimidin-4-yl]amino]pyrimidin-2-yl]amino]phenyl]methyl] piperidine-3-carboxylate]?
Answer: Ki [1]: 0.0398 to 0.316 nM; IC50 [2]: 25.1 to 158 nM

Question: Which Ki [1] does the source give for `Cc1cccc(-c2nccc(Nc3ccnc(Nc4ccc(CN5CCCC(C(=O)NC6CCNCC6)C5)cc4)n3)n2)n1` (stereo not shown) [Compound 320, 1-[[4-[[4-[[2-(6-methyl-2-pyridyl)pyrimidin-4-yl]amino]pyrimidin-2-yl]amino]phenyl]methyl]-N-(4-piperidyl)piperidine-3-carboxamide] here?
Answer: 0.0398 to 0.316 nM

Question: What about the IC50 [2] of the same molecule?
Answer: 25.1 to 158 nM

Question: With `Cc1cccc(-c2nccc(Nc3ccnc(Nc4ccc(NCCO)cc4)n3)n2)n1` [Compound 321, 2-[4-[[4-[[2-(6-methyl-2-pyridyl)pyrimidin-4-yl]amino]pyrimidin-2-yl]amino]anilino]ethanol] as the molecule, how does the Ki [1] read?
Answer: 0.398 to 3.16 nM

Question: What about the IC50 [2] of the same molecule?
Answer: 25.1 to 158 nM

Question: `Cc1cccc(-c2nccc(Nc3ccnc(Nc4cccc(N5CCNCC5)c4)n3)n2)n1` [Compound 322, N4-[2-(6-methyl-2-pyridyl)pyrimidin-4-yl]-N2-(3-piperazin-1-ylphenyl)pyrimidine-2,4-diamine] was tested. Which Ki [1] did it give?
Answer: 0.0398 to 0.316 nM

Question: What about the IC50 [2] of the same molecule?
Answer: 25.1 to 158 nM

Question: Which results are given for `Cc1cccc(-c2nccc(Nc3ccnc(Nc4nc(C(=O)O[C@H]5CCN(C)C5)cs4)n3)n2)n1` [Compound 323, [(3S)-1-methylpyrrolidin-3-yl] 2-[[4-[[2-(6-methyl-2-pyridyl)pyrimidin-4-yl]amino]pyrimidin-2-yl]amino]thiazole-4-carboxylate]?
Answer: Ki [1]: 0.398 to 3.16 nM; IC50 [2]: 25.1 to 158 nM

Question: Which results are given for `Cc1cccc(-c2nccc(Nc3ccnc(Nc4ccc(N5CCC(N)CC5)cc4)n3)n2)n1` [Compound 324, N2-[4-(4-amino-1-piperidyl)phenyl]-N4-[2-(6-methyl-2-pyridyl)pyrimidin-4-yl]pyrimidine-2,4-diamine]?
Answer: Ki [1]: 0.0398 to 0.316 nM; IC50 [2]: 25.1 to 158 nM

Question: `Cc1cccc(-c2nccc(Nc3ccnc(Nc4ncc(C(=O)OC5CNC5)s4)n3)n2)n1` [Compound 325, azetidin-3-yl 2-[[4-[[2-(6-methyl-2-pyridyl)pyrimidin-4-yl]amino]pyrimidin-2-yl]amino]thiazole-5-carboxylate] was tested. Which Ki [1] did it give?
Answer: 3.98 to 31.6 nM

Question: And the IC50 [2]?
Answer: 25.1 to 158 nM

Question: Which results are given for `CN1CCN(C2CCN(c3ccc(Nc4nccc(Nc5ccnc(-c6cc(Cl)c(F)cc6F)n5)n4)cc3)CC2)CC1` [Compound 326, N4-[2-(5-chloro-2,4-difluoro-phenyl)pyrimidin-4-yl]-N2-[4-[4-(4-methylpiperazin-1-yl)-1-piperidyl]phenyl]pyrimidine-2,4-diamine]?
Answer: Ki [1]: 0.0398 to 0.316 nM; IC50 [2]: 200 to 1260 nM

Question: What does the source list for `Cc1cccc(-c2nccc(Nc3ccnc(Nc4csc(C(=O)NC5CNC5)c4)n3)n2)n1` [Compound 327, N-(azetidin-3-yl)-4-[[4-[[2-(6-methyl-2-pyridyl)pyrimidin-4-yl]amino]pyrimidin-2-yl]amino]thiophene-2-carboxamide]?
Answer: Ki [1]: ≤ 0.0316 nM; IC50 [2]: 25.1 to 158 nM

Question: Which results are given for `Cc1cccc(-c2nccc(Nc3ccnc(Nc4ccc(-c5cn(C)nn5)cc4)n3)n2)n1` [Compound 328, N4-[2-(6-methyl-2-pyridyl)pyrimidin-4-yl]-N2-[4-(1-methyltriazol-4-yl)phenyl]pyrimidine-2,4-diamine]?
Answer: Ki [1]: 0.0398 to 0.316 nM; IC50 [2]: ≤ 20 nM

Question: What does the source list for `Cc1cccc(-c2nccc(Nc3ccnc(Nc4nc(CN5CCN[C@@H](CO)C5)cs4)n3)n2)n1` [Compound 329, [(2R)-4-[[2-[[4-[[2-(6-methyl-2-pyridyl)pyrimidin-4-yl]amino]pyrimidin-2-yl]amino]thiazol-4-yl]methyl]piperazin-2-yl]methanol]?
Answer: Ki [1]: 0.398 to 3.16 nM; IC50 [2]: 25.1 to 158 nM

Question: `Cc1cccc(-c2nccc(Nc3ccnc(Nc4ccc(NC(=O)N5CCN(C)CC5)cc4)n3)n2)n1` [Compound 330, 4-methyl-N-[4-[[4-[[2-(6-methyl-2-pyridyl)pyrimidin-4-yl]amino]pyrimidin-2-yl]amino]phenyl]piperazine-1-carboxamide] was tested. Which Ki [1] did it give?
Answer: 0.0398 to 0.316 nM

Question: And the IC50 [2]?
Answer: 25.1 to 158 nM

Question: Which results are given for `Cc1cccc(-c2nccc(Nc3ccnc(Nc4ccc(C5=CCNC5)cc4)n3)n2)n1` [Compound 331, N2-[4-(2,5-dihydro-1H-pyrrol-3-yl)phenyl]-N4-[2-(6-methyl-2-pyridyl)pyrimidin-4-yl]pyrimidine-2,4-diamine]?
Answer: Ki [1]: ≤ 0.0316 nM; IC50 [2]: ≤ 20 nM

Question: What does the source list for `Cc1cccc(-c2nccc(Nc3ccnc(Nc4cccc(CN5CC6CCC(C5)N6)c4)n3)n2)n1` [Compound 332, N2-[3-(3,8-diazabicyclo[3.2.1]octan-3-ylmethyl)phenyl]-N4-[2-(6-methyl-2-pyridyl)pyrimidin-4-yl]pyrimidine-2,4-diamine]?
Answer: Ki [1]: 0.0398 to 0.316 nM; IC50 [2]: 25.1 to 158 nM

Question: `Cc1cccc(-c2nccc(Nc3ccnc(Nc4ccc(-c5cn(Cc6ccccc6)nn5)cc4)n3)n2)n1` [Compound 333, N2-[4-(1-benzyltriazol-4-yl)phenyl]-N4-[2-(6-methyl-2-pyridyl)pyrimidin-4-yl]pyrimidine-2,4-diamine] was tested. Which Ki [1] did it give?
Answer: 3.98 to 31.6 nM

Question: What about the IC50 [2] of the same molecule?
Answer: 25.1 to 158 nM

Question: How did the Ki [1] turn out when `CNC(=O)[C@H]1CN(c2ccc(Nc3nccc(Nc4ccnc(-c5cccc(C)n5)n4)n3)cc2)CCN1` [Compound 334, (2R)-N-methyl-4-[4-[[4-[[2-(6-methyl-2-pyridyl)pyrimidin-4-yl]amino]pyrimidin-2-yl]amino]phenyl]piperazine-2-carboxamide] was run?
Answer: 0.0398 to 0.316 nM

Question: What about the IC50 [2] of the same molecule?
Answer: 25.1 to 158 nM

Question: Which results are given for `COc1cc(Nc2nccc(Nc3ccnc(-c4cccc(C)n4)n3)n2)ccc1CN1C[C@@H](C)N[C@@H](C)C1` [Compound 335, N2-[3-methoxy-4-[[rac-(3S,5R)-3,5-dimethylpiperazin-1-yl]methyl]phenyl]-N4-[2-(6-methyl-2-pyridyl)pyrimidin-4-yl]pyrimidine-2,4-diamine]?
Answer: Ki [1]: 0.0398 to 0.316 nM; IC50 [2]: 25.1 to 158 nM

Question: `Cc1cccc(-c2nccc(Nc3ccnc(Nc4csc(C(=O)N[C@@H]5CCNC5)c4)n3)n2)n1` [Compound 336, 4-[[4-[[2-(6-methyl-2-pyridyl)pyrimidin-4-yl]amino]pyrimidin-2-yl]amino]-N-[(3R)-pyrrolidin-3-yl]thiophene-2-carboxamide] was tested. Which Ki [1] did it give?
Answer: ≤ 0.0316 nM

Question: And the IC50 [2]?
Answer: 25.1 to 158 nM

Question: What does the source list for `Cc1cccc(-c2nccc(Nc3ccnc(Nc4ccc(N5CCC(C(=O)O[C@@H]6CCNC6)CC5)cc4)n3)n2)n1` [Compound 337, [(3R)-pyrrolidin-3-yl] 1-[4-[[4-[[2-(6-methyl-2-pyridyl)pyrimidin-4-yl]amino]pyrimidin-2-yl]amino]phenyl]piperidine-4-carboxylate]?
Answer: Ki [1]: 0.0398 to 0.316 nM; IC50 [2]: 25.1 to 158 nM

Question: Which Ki [1] does the source give for `Cc1cccc(-c2nccc(Nc3ccnc(Nc4ncc(C(=O)OCC5CNC5)s4)n3)n2)n1` [Compound 338, azetidin-3-ylmethyl 2-((4-((2-(6-methylpyridin-2-yl)pyrimidin-4-yl)amino)pyrimidin-2-yl)amino)thiazole-5-carboxylate] here?
Answer: 3.98 to 31.6 nM

Question: And the IC50 [2]?
Answer: 200 to 1260 nM

Question: Which Ki [1] does the source give for `Cc1cccc(-c2nccc(Nc3ccnc(Nc4nc(CN5CCC[C@@H](C(=O)O)C5)cs4)n3)n2)n1` [Compound 339, (3R)-1-[[2-[[4-[[2-(6-methyl-2-pyridyl)pyrimidin-4-yl]amino]pyrimidin-2-yl]amino]thiazol-4-yl]methyl]piperidine-3-carboxylic acid] here?
Answer: 0.398 to 3.16 nM

Question: And the IC50 [2]?
Answer: 200 to 1260 nM

Question: How did the Ki [1] turn out when `Cc1cccc(-c2nc(Nc3ccnc(Nc4ccc(N5CCOCC5)cc4)n3)c3nn[nH]c3n2)n1` [Compound 340, N4-[5-(6-methyl-2-pyridyl)-3H-triazolo[4,5-d]pyrimidin-7-yl]-N2-(4-morpholinophenyl)pyrimidine-2,4-diamine] was run?
Answer: 0.0398 to 0.316 nM

Question: What about the IC50 [2] of the same molecule?
Answer: 200 to 1260 nM

Question: For `Cc1cccc(-c2nccc(Nc3ccnc(Nc4ccc(CN5CCC[C@@H](C(=O)O[C@@H]6CCN(C)C6)C5)cc4)n3)n2)n1` [Compound 341, [(3R)-1-methylpyrrolidin-3-yl] (3R)-1-[[4-[[4-[[2-(6-methyl-2-pyridyl)pyrimidin-4-yl]amino]pyrimidin-2-yl]amino]phenyl]methyl] piperidine-3-carboxylate], which Ki [1] is on record?
Answer: 0.0398 to 0.316 nM

Question: And the IC50 [2]?
Answer: 25.1 to 158 nM

Question: How did the Ki [1] turn out when `Cc1cccc(-c2nccc(Nc3ccnc(Nc4ccc(NC[C@@H]5CCCN5)cc4)n3)n2)n1` [Compound 342, N4-[2-(6-methyl-2-pyridyl)pyrimidin-4-yl]-N2-[4-[[(2S)-pyrrolidin-2-yl]methylamino]phenyl] pyrimidine-2,4-diamine] was run?
Answer: 0.0398 to 0.316 nM

Question: What about the IC50 [2] of the same molecule?
Answer: 25.1 to 158 nM

Question: For `Cc1cccc(-c2nccc(Nc3ccnc(Nc4ccc(N5CCC(N)CC5)c(F)c4)n3)n2)n1` [Compound 343, N2-[4-(4-amino-1-piperidyl)-3-fluoro-phenyl]-N4-[2-(6-methyl-2-pyridyl)pyrimidin-4-yl]pyrimidine-2,4-diamine], which Ki [1] is on record?
Answer: ≤ 0.0316 nM

Question: And the IC50 [2]?
Answer: 25.1 to 158 nM

Question: For `Cc1cccc(-c2nccc(Nc3ccnc(Nc4ccc(CN5C[C@@H](C)NC[C@@H]5C)cc4)n3)n2)n1` [Compound 344, N2-[4-[[(2S,5R)-2,5-dimethylpiperazin-1-yl]methyl]phenyl]-N4-[2-(6-methyl-2-pyridyl)pyrimidin-4-yl]pyrimidine-2,4-diamine], which Ki [1] is on record?
Answer: 0.0398 to 0.316 nM

Question: And the IC50 [2]?
Answer: 25.1 to 158 nM
